Patent US3959272A, “Aminoalkyl esters of 2-anilino-nicotinic acids” (Societe Anonyme dite: Hexachime, priority 1972, dated 1976)

Tests used:
[1] = Cardiovascular parameters: intact dogs; type: in vivo, dog; conditions: for Average pressure / Diastolic pressure / Systolic pressure: in % (unit assumed)
Description: (§1) Unsorted dogs of either sex weighing 8 to 17 kg and anaesthetised by chloralose in solution in polyethylene glycol 300 (0.12 g/kg) were respirated artificially using a Bird pump (Mark 7). The carotid arterial blood pressure was measured with the aid of a Statham P 23 dB device. The left ventricular pressure is measured with the same device connected by a supple catheter introduced by the femoral artery and pushed into the left ventricle. The cardiac rhythm is measured from the signals of the carotid pressure. The myocardial contractile force is measured using a strain gauge (Apelab) attached to the right ventricle. All the parameters are recorded on a Beckman polygraph. Two series of dogs are used to test the cardiovascular activity: 5 dogs atropinised (1 mg/kg intravenously) and bivagotomised; and a second series of 4 intact dogs. The product of Example 1 was injected through the saphena vein and the duration of the injection was 2 minutes.
The following Table IX gives the variations of the parameters recorded and their significance according to the t test (* p<0.05; ** p<0.01; *** p<0.001).

[2] = dog, in vivo
Description: The product of Example 1 was perfused in the dog at a dosage of 50 mg/minute by the saphena vein. Cardiac arrest was produced by a dose of 344 mg/kg.

[3] = Anti-inflammatory activity: oedema provoked by carragenin in the rat; type: in vivo; conditions: po, read-out: percentage inhibition of oedema
Description: The method used was as follows.
The anti-inflammatory activity was measured on oedema provoked by carragenin in the rat. Groups of six male rats each weighing 120 to 130 g received the compound under test orally in suspension in "tween 80", half the dose being given 2 hours before and the other half 1/2 hour before the subcutaneous plantar injection of 0.05 ml of a 1 % carragenin solution. The volume of the injected paw was measured by plethysmography at regular intervals. Table 1 below gives the percentage inhibition of the oedema with reference to untreated controls.

[4] = Hypnotic activity in rats or mice (loss of righting reflex); type: in vivo; conditions: for % of sleeping animals: mice
Description: The compounds under test were administered to rats or mice intraperitoneally. The loss of the righting reflex was noted and the duration of sleep measured objectively with reference to the loss of the righting reflex. The compounds under test were also administered by slow perfusion to dogs. The moment when the dog fell asleep and the duration of sleep was noted.

[5] = Potentiation of stereotypes by amphetamine; type: in vivo, rat; conditions: 5 mg/kg dexamphetamine sulphate
Description: The compound under test was administered to groups of 5 rats intraperitoneally. Thirty minutes afterwards, 5 mg/kg of dexamphetamine sulphate was injected intraperitoneally. The duration of the phenomenon is counted at regular intervals from 0 to 4 and the counts are added up.

[6] = Cardiovascular parameters: atropinised and bivagotomised dogs; type: in vivo, dog
Description: as §1
The following Table VIII gives the variations of the recorded parameters and their significance according to the t test (* p< 0.05; ** p<0.01).

[7] = Analgesic activity: Randall and Selitto's test (beer yeast paw, pain threshold); type: in vivo, rat
Description: This activity was measured by Siegmund's test in mice and Randall and Selitto's test in the rat. Groups of ten male rats each weight 120 to 140 g received by subcutaneous plantar injection 0.05 ml of a 5% aqueous suspension of beer yeast. 2 Hours after this treatment they received the compound under test orally and 1 hour after administration of this compound the paw which had been injected and the contralateral paw were subjected to increasing pressure. The appearance of the pain threshold was noted.

[8] = Action on the activity of noradrenaline in dogs; conditions: dog, in vivo
[9] = Acute toxicity in the mouse; conditions: in vivo
[10] = Solubility in water; type: physicochemical
[11] = Antagonism of convulsions produced by cardiazole; type: in vivo; conditions: Mus musculus, ip, read-out: Percentage inhibition of tonic convulsions
Description: Groups of 6 mice received the compound under test 30 minutes before introperitoneal injection of 160 mg/kg of cardiazole. The action of the compound under test on the tonic convulsion phase was observed.

[12] = 16 mg/kg intravenously, 4 dogs, ** p<0.01
[13] = 5 mg/kg intravenously, 5 dogs, * p<0.05
[14] = 8 mg/kg intravenously, 5 dogs, ** p<0.01

In the case of Cc1cccc(Nc2ncccc2C(=O)OCCN2CCOCC2)c1C [Example 1, β-Morpholino ethyl nixylate], the “Alteration in cardiac rhythm” value ([1]; 1 mg/kg intravenously, 4 dogs) is reported as -1 beats per minute, the “Duration of the hypotension” value ([1]; 1 mg/kg intravenously, 4 dogs) is reported as 30 and the Average pressure ([1]; 1 mg/kg intravenously, 4 dogs) is reported as -9±5.2. For the same molecule, the Diastolic pressure ([1]; 1 mg/kg intravenously, 4 dogs) was -10±5.7, the Systolic pressure ([1]; 1 mg/kg intravenously, 4 dogs) was -8±4.6 and the “Alteration in cardiac rhythm” value ([1]; 4 mg/kg intravenously, 4 dogs) was -15 beats per minute. For the same molecule, the “Duration of the hypotension” value ([1]; 4 mg/kg intravenously, 4 dogs) was 60, the Diastolic pressure ([1]; 4 mg/kg intravenously, 4 dogs, * p<0.05) was -18±5.5 and the Average pressure ([1]; 4 mg/kg intravenously, 4 dogs) was -16±5.4. For the same molecule, the Systolic pressure ([1]; 4 mg/kg intravenously, 4 dogs) was -15±5.3, the “Alteration in cardiac rhythm” value ([1]; 8 mg/kg intravenously, 2 dogs) was -22 beats per minute and the Average pressure ([1]; 8 mg/kg intravenously, 2 dogs) was -38. The Diastolic pressure ([1]; 8 mg/kg intravenously, 2 dogs) was -41, the Systolic pressure ([1]; 8 mg/kg intravenously, 2 dogs) was -34 and the “Alteration in cardiac rhythm” value ([1]; 16 mg/kg intravenously, 4 dogs) was -37 beats per minute. For the same molecule, the “Duration of the hypotension” value ([1]; 16 mg/kg intravenously, 4 dogs) was > 50, the Average pressure [1, 12] was -54±4.3 and the Systolic pressure [1, 12] was -45±7. The Diastolic pressure ([1]; 16 mg/kg intravenously, 4 dogs, *** p<0.001) was -57±3.8, the “biphasic action on the recorded parameters” value ([1]; different dosages) was “No biphasic action on the recorded parameters was observed” and the “dose producing cardiac arrest” value [2] was 344 mg/kg. It also gave an inhibition in vivo at 16 mg/kg ([3]; 16 mg/kg orally) of 16%, an inhibition in vivo at 32 mg/kg ([3]; 32 mg/kg orally) of 20% and an inhibition in vivo at 64 mg/kg ([3]; 64 mg/kg orally) of 34%. For the same molecule, the inhibition in vivo at 128 mg/kg ([3]; 128 mg/kg orally) was 45%, the inhibition in vivo at 256 mg/kg ([3]; 256 mg/kg orally) was 61% and the “% of sleeping animals” value ([4]; 50 mg/kg intraperitoneally) was 0%. The “% of sleeping animals” value ([4]; 75 mg/kg intraperitoneally) was 46%, the “% of sleeping animals” value ([4]; 100 mg/kg intraperitoneally) was 57% and the “% of sleeping animals” value ([4]; 125 mg/kg intraperitoneally) was 84%. For the same molecule, the “% of sleeping animals” value ([4]; 200 mg/kg intraperitoneally) was 92%, the “% of sleeping animals” value ([4]; 250 mg/kg intraperitoneally) was 100% and the sleep caused ([4]; only this product of those tested) was “caused sleep”. The “Sum of the counts (stereotypes)” value ([5]; 8 mg/kg intraperitoneally) was 14, the “Sum of the counts (stereotypes)” value ([5]; 16 mg/kg intraperitoneally) was 18 and the “Sum of the counts (stereotypes)” value ([5]; 32 mg/kg intraperitoneally) was 21. The “Sum of the counts (stereotypes)” value ([5]; 64 mg/kg intraperitoneally) was 33, the “Sum of the counts (stereotypes)” value ([5]; 128 mg/kg intraperitoneally) was 43 and the Average blood pressure ([6]; 1 mg/kg intravenously, 5 dogs) was -4±2%. The Diastolic blood pressure ([6]; 1 mg/kg intravenously, 5 dogs) was -4±2%, the Systolic blood pressure ([6]; 1 mg/kg intravenously, 5 dogs) was -3,3±3% and the Average blood pressure ([6]; 2 mg/kg intravenously, 2 dogs) was -12%. For the same molecule, the Diastolic blood pressure ([6]; 2 mg/kg intravenously, 2 dogs) was -12%, the “Duration of reduced blood pressure” value ([6]; 2 mg/kg intravenously, 2 dogs) was 30 and the Systolic blood pressure ([6]; 2 mg/kg intravenously, 2 dogs) was -12%. The “Change in cardiac rhythm” value ([6]; 5 mg/kg intravenously, 5 dogs) was -8 to -20 beats per minute, the Diastolic blood pressure [6, 13] was -15±4% and the Systolic blood pressure [6, 13] was -13±3%. The Average blood pressure ([6]; 5 mg/kg intravenously, 5 dogs, ** p<0.01) was -14±3%, the “Change in cardiac rhythm” value ([6]; 8 mg/kg intravenously, 5 dogs) was -8 to -20 beats per minute and the Average blood pressure [6, 14] was -26±5%. For the same molecule, the Diastolic blood pressure [6, 14] was -27±5%, the Systolic blood pressure [6, 14] was -24±5% and the Average blood pressure ([6]; 16 mg/kg intravenously, 2 dogs) was -31%. For the same molecule, the “Change in cardiac rhythm” value ([6]; 16 mg/kg intravenously, 2 dogs) was -18 to -24 beats per minute, the Diastolic blood pressure ([6]; 16 mg/kg intravenously, 2 dogs) was -32% and the “Duration of reduced blood pressure” value ([6]; 16 mg/kg intravenously, 2 dogs) was > 30. The Systolic blood pressure ([6]; 16 mg/kg intravenously, 2 dogs) was -30%, the blood pressure ([6]; doses of 4 mg/kg and above, during the injection or one to two minutes afterwards) was “reduction in blood pressure” and the contractile force ([6]; during the injection or one to two minutes afterwards, 2 dogs only) was “slight increase in the contractile force”. The “increase in the cardiac rhythm” value ([6]; during the injection or one to two minutes afterwards, according to the dose) was 2-16 beats per minute, the “left ventricular blood pressure” value ([6]; measured in two dogs only) was “followed the variations of the arterial blood pressure” and the hypotension ([6]; two minutes after the injection) was “hypotension proportional to the dose injected”. The “percentage increase of pain threshold” value ([7]; with yeast, 8 mg/kg orally) was 15%, the “percentage increase of pain threshold” value ([7]; with yeast, 16 mg/kg orally) was 68% and the “percentage increase of pain threshold” value ([7]; with yeast, 32 mg/kg orally) was 90%. For the same molecule, the “percentage increase of pain threshold” value ([7]; with yeast, 64 mg/kg orally) was 83%, the “percentage increase of pain threshold” value ([7]; with yeast, 128 mg/kg orally) was 120% and the “percentage increase of pain threshold” value ([7]; with yeast, 256 mg/kg orally) was 161%. The “percentage increase of pain threshold” value ([7]; without yeast, 8 mg/kg orally) was 37%, the “percentage increase of pain threshold” value ([7]; without yeast, 16 mg/kg orally) was 29% and the “percentage increase of pain threshold” value ([7]; without yeast, 32 mg/kg orally) was 51%. For the same molecule, the “percentage increase of pain threshold” value ([7]; without yeast, 64 mg/kg orally) was 72%, the “percentage increase of pain threshold” value ([7]; without yeast, 128 mg/kg orally) was 101% and the “percentage increase of pain threshold” value ([7]; without yeast, 256 mg/kg orally) was 126%. For the same molecule, the “action on the activity of noradrenaline” value [8] was “without action on the activity of noradrenaline”, the LD50 at 168 h ([9]; ip) was 700 mg/kg and the LD50 at 168 h ([9]; iv) was 110 mg/kg. For the same molecule, the LD50 at 168 h ([9]; po) was 1600 mg/kg, the solubility in water ([10]; dihydrochloride) was “very soluble” and the solubility in water ([10]; monohydrochloride) was “sparingly soluable in water”. It also gave an inhibition in vivo at 8 mg/kg ([11]; 8 mg/kg intraperitoneally) of 0%, an inhibition in vivo at 16 mg/kg ([11]; 16 mg/kg intraperitoneally) of 12% and an inhibition in vivo at 32 mg/kg ([11]; 32 mg/kg intraperitoneally) of 21%. For the same molecule, the inhibition in vivo at 64 mg/kg ([11]; 64 mg/kg intraperitoneally) was 62% and the inhibition in vivo at 128 mg/kg ([11]; 128 mg/kg intraperitoneally) was 95%.
